In brackets after ≈: the same amount, converted by molar mass. Where two headings read alike, the source gives them in different places.
Key:
Assay in all cases: in vitro antibacterial MIC, agar plate dilution
Type in all cases: cell-based
[1] = system: Streptococcus faecalis VGH 84-65; conditions: 35° C.
Procedure, shortened: (§1)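 Agar plate dilution on Mueller-Hinton agar, inoculum about 10^4 CFU per spot applied with a Steers replicator. MIC (mcg/ml) is the lowest compound concentration preventing visible growth after 18 h at 35 °C.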

[2] = system: Staphylococcus epidermidis VGH 84-40; conditions: 35° C.
Procedure, shortened: as §1

[3] = system: Staphylococcus epidermidis CMC 83-135; conditions: 35° C.
Procedure, shortened: as §1

[4] = system: Acinetobacter calcoaceticus MOR 84-43; conditions: 35° C.
Procedure, shortened: as §1

[5] = system: Staphylococcus aureus CMC 83-127; conditions: 35° C.
Procedure, shortened: as §1

[6] = system: Staphylococcus aureus ATTC 29213; conditions: 35° C.
Procedure, shortened: as §1

[7] = system: Staphylococcus epidermidis IO 83-58; conditions: 35° C.
Procedure, shortened: as §1

[8] = system: Escherichia coli PRNT 311; conditions: 35° C.
Procedure, shortened: as §1

[9] = system: Staphylococcus aureus Smith; conditions: 35° C.
Procedure, shortened: as §1

Escherichia coli NAR 311 = conditions: 35° C.
Procedure, shortened: as §1

[10] = system: Enterobacter cloacae K 84-10; conditions: 35° C.
Procedure, shortened: as §1

[11] = system: Staphylococcus aureus VGH 84-45; conditions: 35° C.
Procedure, shortened: as §1

[12] = system: Staphylococcus aureus VGH 84-46; conditions: 35° C.
Procedure, shortened: as §1

[13] = system: Morganella morganii CMC 84-37; conditions: 35° C.
Procedure, shortened: as §1

[14] = system: Pseudomonas aeruginosa LL-1244; conditions: 35° C.
Procedure, shortened: as §1

[15] = system: Escherichia coli CMC 84-11; conditions: 35° C.
Procedure, shortened: as §1

[16] = system: Klebsiella pneumoniae MOR 84-4; conditions: 35° C.
Procedure, shortened: as §1

[17] = system: Staphylococcus aureus CMC 83-128; conditions: 35° C.
Procedure, shortened: as §1

[18] = system: Serratia marcescens K 84-18; conditions: 35° C.
Procedure, shortened: as §1

[19] = system: Escherichia coli ATCC 25922; conditions: 35° C.
Procedure, shortened: as §1

[20] = system: Proteus rettgeri CMC 84-41; conditions: 35° C.
Procedure, shortened: as §1

[21] = system: Morganella morganii VGH 84-11; conditions: 35° C.
Procedure, shortened: as §1

Klebsiella pneumoniae AD = conditions: 35° C.
Procedure, shortened: as §1

[22] = system: Serratia marcescens F 0-35; conditions: 35° C.
Procedure, shortened: as §1

[23] = system: Streptococcus faecalis ATTC 29212; conditions: 35° C.
Procedure, shortened: as §1

[24] = system: Escherichia coli CMC 84-16; conditions: 35° C.
Procedure, shortened: as §1

[25] = system: Enterobacter aerogenes VGH 84-36; conditions: 35° C.
Procedure, shortened: as §1

[26] = system: Staphylococcus Spp saprophiticus VGH 84-50; conditions: 18 hours, 35° C.
Procedure, shortened: as §1

[27] = system: Pseudomonas aeruginosa VGH 84-4; conditions: 35° C.
Procedure, shortened: as §1

[28] = system: Enterobacter cloacae VGH 84-37; conditions: 35° C.
Procedure, shortened: as §1

CCn1cc(C(=O)O)c(=O)c2cc(F)c(N3CCNC(CF)C3)c(F)c21 (racemic) [Example 63, (racemic)-N-Ethyl-6,8-difluoro-7-[3-(fluoromethyl)-1-piperazinyl]-1,4-dihydro-4-oxo-3-quinolinecarboxylic acid]
MIC ([1]; Enterococcus faecalis, VGH8465, 18 h, read-out: MIC): 4 µg/mL (≈ 10.8 µM)
MIC ([2]; VGH8440, 18 hours, read-out: MIC): 0.25 µg/mL (≈ 0.677 µM)
MIC ([3]; CMC83135, 18 hours, read-out: MIC): 0.5 µg/mL (≈ 1.35 µM)
MIC ([4]; MOR8443, 18 hours, read-out: MIC): 0.5 µg/mL (≈ 1.35 µM)
MIC ([5]; Staphylococcus aureus, CMC83127, 18 h, read-out: MIC): 0.12 µg/mL (≈ 0.325 µM)
MIC ([6]; Staphylococcus aureus, ATTC29213, 18 h, read-out: MIC): 0.25 µg/mL (≈ 0.677 µM)
MIC ([7]; IO8358, 18 hours, read-out: MIC): 0.25 µg/mL (≈ 0.677 µM)
MIC ([8]; PRNT311, 18 hours, read-out: MIC): 0.12 µg/mL (≈ 0.325 µM)
MIC ([9]; Staphylococcus aureus, 18 h, read-out: MIC): 0.25 µg/mL (≈ 0.677 µM)
MIC (Escherichia coli NAR 311; NAR311, 18 hours, read-out: MIC): 1 µg/mL (≈ 2.71 µM)
MIC ([10]; Enterobacter cloacae, K8410, 18 h, read-out: MIC): 0.12 µg/mL (≈ 0.325 µM)
MIC ([11]; Staphylococcus aureus, VGH8445, 18 h, read-out: MIC): 0.25 µg/mL (≈ 0.677 µM)
MIC ([12]; Staphylococcus aureus, VGH8446, 18 h, read-out: MIC): 0.25 µg/mL (≈ 0.677 µM)
MIC ([13]; Morganella morganii, CMC8437, 18 h, read-out: MIC): 0.12 µg/mL (≈ 0.325 µM)
MIC ([14]; Pseudomonas aeruginosa, LL1244, 18 h, read-out: MIC): 8 µg/mL (≈ 21.7 µM)
MIC ([15]; Escherichia coli, CMC8411, 18 h, read-out: MIC): 0.06 µg/mL (≈ 0.162 µM)
MIC ([16]; Klebsiella pneumoniae, MOR844, 18 h, read-out: MIC): 0.12 µg/mL (≈ 0.325 µM)
MIC ([17]; CMC83128, 18 hours, read-out: MIC): 0.03 µg/mL (≈ 0.0812 µM)
MIC ([18]; Serratia marcescens, K8418, 18 h, read-out: MIC): 0.06 µg/mL (≈ 0.162 µM)
MIC ([19]; Escherichia coli, ATCC25922, 18 h, read-out: MIC): 0.06 µg/mL (≈ 0.162 µM)
MIC ([20]; Providencia rettgeri, CMC8441, 18 h, read-out: MIC): 0.5 µg/mL (≈ 1.35 µM)
MIC ([21]; VGH8411, 18 hours, read-out: MIC): 0.5 µg/mL (≈ 1.35 µM)
MIC (Klebsiella pneumoniae AD; Klebsiella pneumoniae, 18 h, read-out: MIC): 0.12 µg/mL (≈ 0.325 µM)
MIC ([22]; Serratia marcescens, F035, 18 h, read-out: MIC): 0.5 µg/mL (≈ 1.35 µM)
MIC ([23]; Enterococcus faecalis, ATTC29212, 18 hours, read-out: MIC): 4 µg/mL (≈ 10.8 µM)
MIC ([24]; Escherichia coli, CMC8416, 18 h, read-out: MIC): 0.06 µg/mL (≈ 0.162 µM)
MIC ([25]; Klebsiella aerogenes, VGH8436, 18 hours, read-out: MIC): 0.25 µg/mL (≈ 0.677 µM)
MIC ([26]; read-out: MIC): 0.06 µg/mL (≈ 0.162 µM)
MIC ([27]; Pseudomonas aeruginosa, VGH844, 18 h, read-out: MIC): 2 µg/mL (≈ 5.42 µM)
MIC ([28]; Enterobacter cloacae, VGH8437, 18 h, read-out: MIC): 0.5 µg/mL (≈ 1.35 µM)

CCn1cc(C(=O)O)c(=O)c2cc(F)c(N3CCNC(CF)C3)c(F)c21 (single isomer, unassigned; (+)) [Example 65, (+)-N-Ethyl-6,8-difluoro-7-[3-(fluoromethyl)-1-piperazinyl]-1,4-dihydro-4-oxo-3-quinolinecarboxylic acid]
MIC ([1]; 18 hours): 4 µg/mL (≈ 10.8 µM)
MIC ([2]; 18 hours): 0.25 µg/mL (≈ 0.677 µM)
MIC ([3]; 18 hours): 0.25 µg/mL (≈ 0.677 µM)
MIC ([4]; 18 hours): 0.5 µg/mL (≈ 1.35 µM)
MIC ([5]; 18 hours): 0.12 µg/mL (≈ 0.325 µM)
MIC ([6]; 18 hours): 0.25 µg/mL (≈ 0.677 µM)
MIC ([7]; 18 hours): 0.25 µg/mL (≈ 0.677 µM)
MIC ([8]; 18 hours): 0.06 µg/mL (≈ 0.162 µM)
MIC ([9]; 18 hours): 0.25 µg/mL (≈ 0.677 µM)
MIC (Escherichia coli NAR 311; 18 hours): 1 µg/mL (≈ 2.71 µM)
MIC ([10]; 18 hours): 0.06 µg/mL (≈ 0.162 µM)
MIC ([11]; 18 hours): 0.12 µg/mL (≈ 0.325 µM)
MIC ([12]; 18 hours): 0.25 µg/mL (≈ 0.677 µM)
MIC ([13]; 18 hours): 0.12 µg/mL (≈ 0.325 µM)
MIC ([14]; 18 hours): 8 µg/mL (≈ 21.7 µM)
MIC ([15]; 18 hours): 0.06 µg/mL (≈ 0.162 µM)
MIC ([16]; 18 hours): 0.12 µg/mL (≈ 0.325 µM)
MIC ([17]; 18 hours): 0.25 µg/mL (≈ 0.677 µM)
MIC ([18]; 18 hours): 0.25 µg/mL (≈ 0.677 µM)
MIC ([19]; 18 hours): 0.06 µg/mL (≈ 0.162 µM)
MIC ([20]; 18 hours): 0.25 µg/mL (≈ 0.677 µM)
MIC ([21]; 18 hours): 0.12 µg/mL (≈ 0.325 µM)
MIC (Klebsiella pneumoniae AD; 18 hours): 0.12 µg/mL (≈ 0.325 µM)
MIC ([22]; 18 hours): 0.25 µg/mL (≈ 0.677 µM)
MIC ([23]; 18 hours): 4 µg/mL (≈ 10.8 µM)
MIC ([24]; 18 hours): 0.06 µg/mL (≈ 0.162 µM)
MIC ([25]; 18 hours): 0.12 µg/mL (≈ 0.325 µM)
MIC [26]: 1 µg/mL (≈ 2.71 µM)
MIC ([27]; 18 hours): 1 µg/mL (≈ 2.71 µM)
MIC ([28]; 18 hours): 0.12 µg/mL (≈ 0.325 µM)

Reference: patent US5210193A, “Piperazine derivatives” (American Cyanamid Company, priority 1990, dated 1993)
